From the NIST ThermoML archive (doi:10.1016/j.jct.2016.04.023)
± gives the expanded uncertainty stated by the source.

Test: Boiling temperature at pressure P
Settings: Liquid, DSC

Row | SMILES | Boiling temperature at pressure P (3.47 kPa) [°C] | further results
1 | CCCCCCCCCCCCCCCCCCO [1-octadecanol] | 225.89 ± 1.8 | –
2 | CCCCCCCCCCCCCCCCCC [octadecane] | 196.81 ± 1.9 | –
3 | CCCCCCCC(=O)OCC(O)CO (stereo unspecified) [2,3-dihydroxypropyl octanoate] | 211.90 ± 1.9 | –
4 | OCC(O)CO [glycerol] | 186.13 ± 1.7 | –
5 | CCCCCCCC(=O)O [octanoic acid] | 144.04 ± 1.9 | –
6 | CCCCCCCCCCCCCCCC [hexadecane] | 170.91 ± 2.5 | Boiling temperature at pressure P (10.37 kPa): 200.90 ± 1.7 °C; Boiling temperature at pressure P (15.17 kPa): 213.66 ± 1.6 °C; Boiling temperature at pressure P (18.66 kPa): 220.5 ± 2.6 °C; Boiling temperature at pressure P (22.39 kPa): 223.27 ± 2.3 °C
7 | CCCC(=O)OCC(COC(=O)CCC)OC(=O)CCC [1,2,3-propanetriyl tributanoate] | 201.40 ± 1.9 | –
